Experimental data as given in ChEMBL document CHEMBL1177690, “Target-specific control of lymphoid-specific protein tyrosine phosphatase (Lyp) activity” (Bioorg Med Chem, 2010).

Legend:
[1] = target: T1, Tyrosine-protein phosphatase non-receptor type 22 (Homo sapiens) (UniProt Q9Y2R2); experiment: Inhibition of Lyp expressed in Escherichia coli […]
T1 sequence (whole entry): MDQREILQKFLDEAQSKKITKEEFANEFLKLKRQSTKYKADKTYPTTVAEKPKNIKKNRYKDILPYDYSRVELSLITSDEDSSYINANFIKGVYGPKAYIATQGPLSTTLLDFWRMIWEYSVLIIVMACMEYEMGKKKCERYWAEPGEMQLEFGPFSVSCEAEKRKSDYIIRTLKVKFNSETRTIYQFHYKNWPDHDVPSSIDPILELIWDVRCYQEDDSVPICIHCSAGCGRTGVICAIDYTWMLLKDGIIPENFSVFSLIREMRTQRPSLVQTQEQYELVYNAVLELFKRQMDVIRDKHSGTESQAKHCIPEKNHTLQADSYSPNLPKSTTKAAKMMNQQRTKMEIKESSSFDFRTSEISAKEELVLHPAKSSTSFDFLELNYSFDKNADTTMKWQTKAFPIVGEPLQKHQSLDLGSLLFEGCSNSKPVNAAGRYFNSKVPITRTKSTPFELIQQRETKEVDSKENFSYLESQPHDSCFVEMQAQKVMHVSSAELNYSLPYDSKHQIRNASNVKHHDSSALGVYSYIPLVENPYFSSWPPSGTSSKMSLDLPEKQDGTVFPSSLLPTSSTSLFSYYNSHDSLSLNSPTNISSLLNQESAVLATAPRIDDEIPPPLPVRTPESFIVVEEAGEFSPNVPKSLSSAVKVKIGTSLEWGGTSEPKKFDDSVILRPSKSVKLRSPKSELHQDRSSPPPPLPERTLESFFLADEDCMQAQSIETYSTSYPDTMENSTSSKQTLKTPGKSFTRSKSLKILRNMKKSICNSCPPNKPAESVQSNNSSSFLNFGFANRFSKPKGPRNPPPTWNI

[2] = Activity at Lyp CCPGCC mutant expressed in Escherichia coli using pNPP as a substrate […]

For `O=C(O)c1ccccc1-c1c2ccc(=O)c([As]3SCCS3)c-2oc2c([As]3SCCS3)c(O)ccc12`, which Activity [1] is on record?
The Activity was “Dose-dependent effect”.

And the kcat [2]?
The kcat was 0.057 s⁻¹.
